Results from patent US7153676B1, “Transacylases of the paclitaxel biosynthetic pathway” (priority 1999, dated 2006).
Where “and” joins values, the source holds several entries; their conditions need not be identical. Equal values may be shown once.

Tests used:
[1] = target: T1, 10-deacetylbaccatin III-10-O-acetyl transferase (TAX6) (Taxus cuspidata, UniProt Q9M6E2); assay type: biochemical; conditions: for conversion/acetylation of substrate by TAX6: 10-hydroxyl of 10-deacetylbaccatin III, 5α-hydroxyl of taxadienol
T1 construct: to amplify the putative full-length acetyl transferase gene and incorporate NdeI and XbaI restriction sites; made in house; host or cells: E. coli JM109 (pCWori+)
T1 sequence (Q9M6E2 1-440): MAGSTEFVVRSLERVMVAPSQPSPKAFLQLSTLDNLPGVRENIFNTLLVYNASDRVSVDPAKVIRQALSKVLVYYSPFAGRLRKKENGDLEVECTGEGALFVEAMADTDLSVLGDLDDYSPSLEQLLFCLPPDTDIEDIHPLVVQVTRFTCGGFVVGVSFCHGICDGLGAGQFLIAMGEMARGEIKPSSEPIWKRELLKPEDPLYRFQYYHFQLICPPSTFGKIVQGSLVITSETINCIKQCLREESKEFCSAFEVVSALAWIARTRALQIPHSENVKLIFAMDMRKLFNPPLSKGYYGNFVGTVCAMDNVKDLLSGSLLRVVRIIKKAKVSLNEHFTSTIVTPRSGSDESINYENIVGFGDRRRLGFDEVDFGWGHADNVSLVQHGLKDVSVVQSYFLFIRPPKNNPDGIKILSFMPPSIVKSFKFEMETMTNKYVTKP
Protocol: For the enzyme preparation, E. coli cells transformed with the pCWori+ vector harboring the putative DBAT gene were grown overnight at 37° C. in 5 mL Luria-Bertani medium supplemented with ampicillin, and 1 mL of this inoculum was added to and grown in 100 mL Terrific Broth culture medium (6 g bacto-tryptone, Difco Laboratories, Spark, Md., 12 g yeast extract, EM Science, Cherryhill, N.J., and 2 mL gycerol in 500 mL water) supplemented with 1 mM IPTG, 1 mM thiamine HCl and 50 μg ampicillin/mL. After 24 hours, the bacteria were harvested by centrifugation, resuspended in 20 mL of assay buffer (25 mM Mopso, pH 7.4) and then disrupted by sonication at 0–4° C. The resulting homogenate was centrifuged at 15,000 g to remove debris, and a 1 mL aliquot of the supernatant was incubated with 10-deacetylbaccatin III (400 μM) and [2-^3H]acetyl coenzyme A (0.45μCi, 400 μM) for 1 hour at 31° C. The reaction mixture was extracted with ether and the solvent concentrated in vacuo. The crude product (pooled from five such assays) was purified by silica gel thin-layer chromatography (TLC; 70:30 ethyl acetate:hexane).
The activity of TAX6 (SEQ ID NO: 45) was assayed under standard conditions described in Walker et al., Arch. Biochem. Biophys.

[2] = system: acetyl CoA:taxadien-5α-ol O-acetyl transacylase; conditions: cited from earlier work; for acetylation by the enzyme (substrate selectivity): more advanced paclitaxel precursors; for Km: cosubstrate of the taxadienol acetyl transacylase

Q: Which Km [1] does the source give for `CC(=O)O[C@@]12CO[C@@H]1C[C@H](O)[C@@]1(C)C(=O)[C@H](O)C3=C(C)[C@@H](O)C[C@@](O)([C@@H](OC(=O)c4ccccc4)[C@H]21)C3(C)C` [10-deacetylbaccatin III] here?
A: 10 µM

Q: What about the “conversion/acetylation of substrate by TAX6” value [1] of the same compound?
A: catalyze the conversion

Q: And the “acetylation of the 1β-, 7β-, or 13α-hydroxyl groups by TAX6” value ([1]; regioselectivity)?
A: does not acetylate

Q: What about the “acetylation by the enzyme (substrate selectivity)” value [2] of the same compound?
A: does not acetylate

Q: For `CC(C)(COP(=O)(O)OP(=O)(O)OC[C@H]1O[C@@H](n2cnc3c(N)ncnc32)[C@H](O)[C@@H]1OP(=O)(O)O)[C@@H](O)C(=O)NCCC(=O)NCCS` [Co-enzyme A], which “inhibition of the enzyme” value [2] is on record?
A: only weakly inhibited

Q: With `CC(=O)SCCNC(=O)CCNC(=O)[C@H](O)C(C)(C)COP(=O)(O)OP(=O)(O)OC[C@H]1O[C@@H](n2cnc3c(N)ncnc32)[C@H](O)[C@@H]1OP(=O)(O)O` [acetyl CoA] as the compound, how does the Km [2] read?
A: 5.5 µM and 6 µM

Q: With `CC(=O)O[C@H]1C(=O)[C@@]2(C)[C@H]([C@H](OC(=O)c3ccccc3)[C@]3(O)C[C@H](O)C(C)=C1C3(C)C)[C@]1(OC(C)=O)CO[C@@H]1C[C@@H]2O` [baccatin III] as the compound, how does the “acetylation by the enzyme (substrate selectivity)” value [2] read?
A: does not acetylate

Q: For `C=C1[C@H]2C[C@@H]3CCC(C)=C(CC[C@]2(C)CC[C@@H]1O)C3(C)C` [taxadienol, taxa-4(20),11(12)-dien-5α-ol], which “conversion/acetylation of substrate by TAX6” value [1] is on record?
A: nor does it acetylate

Q: And the Km [2]?
A: 4.2 µM and 4 µM
